What all share (assay type): in vivo
For one test, the system named is orientation motility. Description: influence on orientation motility in mice (sedative action). The following applies: Mus musculus, po, read-out: ED50 (influence on orientation motility, sedative action). Here is the method:
Influence on orientation motility in mice was tested to determine the sedative action; an ED50 of 0.5 mg/kg perorally was found for the compound of Example 4.

Test [1] is described as follows: Randall-Selitto test (analgesic action). Particulars: Rattus norvegicus, po; perorally, rats.
A further test concerns carrageenan oedema. Description: antiphlogistic action, carrageenan oedema (modified method of Winter et al.). Particulars: po; peroral; pure λ-carrageenan as 0.25% suspension in physiological saline. As for the experimental part: Exp. Biol. Med. 111, 544 (1962), with the modification that pure λ-carrageenan as a 0.25% strength suspension in physiological saline solution was used for oedema provocation. The following ED50 values, for example, were determined using this procedure: […]

Test [2] in a line: benzoquinone test (analgesic action). Particulars: Mus musculus, po; perorally; mice.

Drawing on US4539402A, “Quinazolinone derivatives” (Troponwerke GmbH & Co., priority 1982, dated 1985), this text covers ED50 for five compounds.

Each structure is given as a SMILES string. Like-named read-outs stand apart in the source and are kept apart here.

Consider `O=C1c2ccccc2N(c2cccc([N+](=O)[O-])c2)C2=NCCN12` [Example 4, 10-(3-Nitrophenyl)-2,3-dihydroimidazo-[2,1-b]-quinazolin-5(10H)-one], for which the ED50 is 0.5 mg/kg in the test on orientation motility (perorally, mice); 3.4 mg/kg in test [1]; 1.3 mg/kg in the test on carrageenan oedema; 3.1 mg/kg in test [2]. On to `O=C1c2ccccc2N(c2cccc(C(F)(F)F)c2)C2=NCCN12` [Example 5, 10-(3-Trifluoromethylphenyl)-2,3-dihydroimidazo-[2,1-b]-quinazolin-5(10H)-one], for which, in the test on carrageenan oedema, it took a dose of 25.2 mg/kg to reach the 50% effect level (ED50). The same measure, in the same setting: under `Nc1cccc(N2C3=NCCN3C(=O)c3ccccc32)c1` [Example 9, 10-(3-Aminophenyl)-2,3-dihydroimidazo-[2,1-b]-quinoazolin-5(10H)-one] stands 3.1 mg/kg. As to `CN(C)CCCN1c2ccccc2Sc2ccc(Cl)cc21` [chlorpromazine], the ED50 with orientation motility is 3.05 mg/kg. For `CN1C(=O)CN=C(c2ccccc2)c2cc(Cl)ccc21` [diazepam], the median effective dose (ED50) in the test on orientation motility was 2.8 mg/kg.

As usually defined, the ED50 is the midpoint of the dose-response relation.
